Some results are limits rather than exact numbers.

The text below walks through data of US20260218121A1, “METHODS FOR CELL SURFACE REMODELING” (NANTES UNIVERSITÉ, priority 2023, published 2026).

The conditions of data set [1]: Ruben et al., biomacromolecules, 2019, 20, 2726; cited from earlier work.
The subject of another data set is DC2.4 cells. As to the kind of experiment: Viability by live and dead assay (electro-bioconjugation or glyco-engineering). Particulars: glyco-engineering (comparative), concentration of 250 μM, 72 h.

Consider `CC(=O)OC[C@H]1OC(OC(C)=O)[C@@H](NC(=O)CN=[N+]=[N-])[C@@H](OC(C)=O)[C@@H]1OC(C)=O` (some centres unmarked) [Ac4ManNAz], for which the “concentration that can be used” value in data set [1] is at most 100 µM. The viability in the data set with DC2.4 cells was determined as 30%.

As a reminder, the viability is a per cent measure of how many cells are alive, often set against a control.
